Three molecules from patent US20070275962A1, “Heterobicyclic Compounds as Pharmaceutically Active Agents” (GPC BIOTECH AG, priority 2003, published 2007) can be followed below.

Structures are written as SMILES. Bounds are passed on as bounds.

Holding throughout (type): biochemical
One assay concerns the target T1, CK1-alpha GST (Homo sapiens, UniProt P48729).
T1 construct: GST
Nature of the assay: General kinase assay: CK1-alpha. The conditions noted are these: concentration 10 μM; read-out: Inhibitory effect on Target CK1-alpha GST. As to the method:
(§1) General Assay Protocol for all Kinases [[[…]]] [[[…]]] Reaction Buffer: Final Assay Concentrations: [[[…]]] Pipetting Sequence: • 1) Add 8 μl 50 μM MBP in Reaction Buffer to each well of Assay Plate • 2) Add 10 μl 500 mM EDTA in H2O to C- wells • 3) Add 8 μl 62.5 μCi/ml Adenosine 5'-[γ-^33P]triphosphate+5 μM ATP in Reaction Buffer to each well • 4) Add 8 μl 5 fold concentrated inhibitor in 5% DMSO in Reaction Buffer to each well except to C- and C+ wells • 5) Add 8 μl 5% DMSO in Reaction Buffer to C- and C+ wells • 6) Add 8 μl 5 fold concentrated kinase in Reaction Buffer to each well • 7) Incubate 1 hr at room temperature • 8) Add 10 μl 50 mM EDTA in H2O to each well except to C- wells • 9) Prepare MAPH plates by adding 200 μl 0.75% H3PO4 to each well • 10) Exhaust 0.75% H3PO4 using Millipore vacuum station • 11) Add 60 μl 0.75% H3PO4 to each well of MAPH Filter Plate • 12) Transfer 30 μl sample per well from Assay Plate to corresponding well of MAPH Filter Plate • 13) Incubate 30 min at room temperature • 14) Wash each well of MAPH Filter Plates 3× with 200 μl 0.75% H3PO4 using Millipore vacuum station • 15) Add 20 μl Szintilation Liquid to each well of MAPH Filter Plate • 16) Seal MAPH Filter Plate • 17) Store MAPH Filter Plate 30 min in darkness • 18) Quantify radioactivity

For a further assay, the target named is T2, RSK1 act. HIS (Homo sapiens, UniProt Q15418).
T2 construct: His
Nature of the assay: General kinase assay: RSK1. The note with it: concentration 10 μM; read-out: Inhibitory effect on Target RSK1 act. HIS. As to the method: as §1

Another assay concerns the target T3, ROCK2 human HIS (Homo sapiens, UniProt O75116).
T3 construct: His
Nature of the assay: General kinase assay: ROCK2. The conditions noted are these: concentration 10 μM; read-out: Inhibitory effect on Target ROCK2 human HIS. As to the method: as §1

The next assay deals with T4, SRPK1 GST (Homo sapiens, UniProt Q96SB4).
T4 construct: GST
T4 sequence (Q96SB4 whole entry): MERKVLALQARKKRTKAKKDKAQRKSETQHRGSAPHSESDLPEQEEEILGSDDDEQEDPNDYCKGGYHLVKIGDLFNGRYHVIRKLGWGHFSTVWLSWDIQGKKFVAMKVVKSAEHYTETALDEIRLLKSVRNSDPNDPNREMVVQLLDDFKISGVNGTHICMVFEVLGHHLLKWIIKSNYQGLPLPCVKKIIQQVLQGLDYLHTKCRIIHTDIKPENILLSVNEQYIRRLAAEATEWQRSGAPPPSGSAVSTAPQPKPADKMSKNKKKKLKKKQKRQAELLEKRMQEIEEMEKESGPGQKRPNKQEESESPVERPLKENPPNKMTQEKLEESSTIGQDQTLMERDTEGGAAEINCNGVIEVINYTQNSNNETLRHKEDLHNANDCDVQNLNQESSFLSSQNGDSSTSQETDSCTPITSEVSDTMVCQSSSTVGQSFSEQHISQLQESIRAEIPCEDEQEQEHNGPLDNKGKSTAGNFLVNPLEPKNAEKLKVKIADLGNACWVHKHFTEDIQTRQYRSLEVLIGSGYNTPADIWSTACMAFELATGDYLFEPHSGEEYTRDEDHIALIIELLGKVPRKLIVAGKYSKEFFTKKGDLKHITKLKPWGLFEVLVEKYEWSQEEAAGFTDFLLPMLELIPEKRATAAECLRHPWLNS
As to the kind of experiment: General kinase assay: SRPK1. The conditions noted are these: concentration 10 μM; read-out: Inhibitory effect on Target SRPK1 GST. As to the method: as §1

For a further assay, the target named is CDK2/CycA (Homo sapiens, UniProt P24941). Nature of the assay: General kinase assay: CDK2/CycA. The note with it: concentration 10 μM; read-out: Inhibitory effect on Target CDK2/CycA. As for the experimental part:
as §1

In the next assay the target is T5, Kit human GST (Homo sapiens, UniProt P10721).
T5 construct: GST
T5 sequence (P10721 26-976): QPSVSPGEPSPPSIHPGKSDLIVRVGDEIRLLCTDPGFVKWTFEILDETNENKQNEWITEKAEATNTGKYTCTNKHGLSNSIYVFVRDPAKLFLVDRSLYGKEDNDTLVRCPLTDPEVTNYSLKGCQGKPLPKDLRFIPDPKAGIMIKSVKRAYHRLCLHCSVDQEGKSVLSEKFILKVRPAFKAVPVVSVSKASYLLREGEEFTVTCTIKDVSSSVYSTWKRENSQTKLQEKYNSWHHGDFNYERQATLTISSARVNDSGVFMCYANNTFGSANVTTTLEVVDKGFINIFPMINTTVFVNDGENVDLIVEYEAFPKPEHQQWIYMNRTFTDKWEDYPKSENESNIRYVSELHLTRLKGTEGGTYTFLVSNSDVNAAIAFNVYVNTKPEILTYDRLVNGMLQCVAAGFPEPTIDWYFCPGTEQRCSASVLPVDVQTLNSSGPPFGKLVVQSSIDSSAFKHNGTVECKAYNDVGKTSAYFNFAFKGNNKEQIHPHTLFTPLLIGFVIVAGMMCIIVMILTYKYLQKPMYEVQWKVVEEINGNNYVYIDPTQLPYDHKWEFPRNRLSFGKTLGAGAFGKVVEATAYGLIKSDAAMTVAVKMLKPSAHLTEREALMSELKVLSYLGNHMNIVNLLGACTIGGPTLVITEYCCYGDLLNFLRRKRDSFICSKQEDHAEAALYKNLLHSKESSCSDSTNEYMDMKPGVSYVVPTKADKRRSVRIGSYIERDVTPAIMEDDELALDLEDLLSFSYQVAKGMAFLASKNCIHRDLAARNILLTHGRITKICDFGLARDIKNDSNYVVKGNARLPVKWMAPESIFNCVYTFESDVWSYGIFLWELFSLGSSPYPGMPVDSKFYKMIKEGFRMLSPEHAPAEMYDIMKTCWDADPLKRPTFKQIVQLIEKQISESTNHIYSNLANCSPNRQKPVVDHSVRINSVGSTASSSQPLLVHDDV
Nature of the assay: General kinase assay: Kit. The note with it: concentration 10 μM; read-out: Inhibitory effect on Target Kit human GST. As to the method: as §1

Another assay deals with T6, Jnk1a1 HIS (Homo sapiens, UniProt P45983).
T6 construct: His
As to the kind of experiment: General kinase assay: Jnk1a1. The conditions noted are these: concentration 10 μM; read-out: Inhibitory effect on Target Jnk1a1 HIS. As to the method:
as §1

Another assay deals with T7, PDGFRbeta GST (Homo sapiens, UniProt P09619).
T7 construct: GST
T7 sequence (P09619 33-1106): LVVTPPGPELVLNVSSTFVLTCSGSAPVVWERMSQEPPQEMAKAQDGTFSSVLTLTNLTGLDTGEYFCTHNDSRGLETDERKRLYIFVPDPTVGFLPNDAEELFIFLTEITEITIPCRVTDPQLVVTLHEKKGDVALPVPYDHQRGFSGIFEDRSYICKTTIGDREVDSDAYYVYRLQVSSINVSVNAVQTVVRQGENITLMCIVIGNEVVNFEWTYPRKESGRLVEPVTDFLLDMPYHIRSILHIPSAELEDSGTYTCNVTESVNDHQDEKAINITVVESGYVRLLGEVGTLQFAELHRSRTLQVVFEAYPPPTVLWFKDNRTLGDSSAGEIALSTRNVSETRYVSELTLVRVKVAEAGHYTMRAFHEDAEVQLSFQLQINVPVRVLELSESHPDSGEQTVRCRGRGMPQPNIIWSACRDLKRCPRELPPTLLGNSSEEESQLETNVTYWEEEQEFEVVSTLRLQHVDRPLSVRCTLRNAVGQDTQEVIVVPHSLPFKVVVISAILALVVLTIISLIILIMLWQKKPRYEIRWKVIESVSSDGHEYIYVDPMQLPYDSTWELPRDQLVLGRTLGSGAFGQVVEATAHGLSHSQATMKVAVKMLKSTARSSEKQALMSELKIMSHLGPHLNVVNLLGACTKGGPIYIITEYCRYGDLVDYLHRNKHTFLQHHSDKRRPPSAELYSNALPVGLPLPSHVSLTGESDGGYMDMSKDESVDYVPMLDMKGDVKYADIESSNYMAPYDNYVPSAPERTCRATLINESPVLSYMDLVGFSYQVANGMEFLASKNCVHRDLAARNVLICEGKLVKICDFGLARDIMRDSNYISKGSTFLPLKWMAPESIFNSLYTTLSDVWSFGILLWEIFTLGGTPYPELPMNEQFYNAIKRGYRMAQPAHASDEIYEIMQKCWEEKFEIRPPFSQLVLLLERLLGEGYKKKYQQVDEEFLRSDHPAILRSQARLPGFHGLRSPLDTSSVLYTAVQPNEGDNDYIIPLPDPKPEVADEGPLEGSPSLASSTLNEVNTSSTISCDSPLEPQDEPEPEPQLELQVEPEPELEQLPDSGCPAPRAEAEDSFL
Nature of the assay: General kinase assay: PDGFRbeta. The conditions noted are these: concentration 10 μM; read-out: Inhibitory effect on Target PDGFRbeta GST. As to the method:
as §1

The target of the next assay is T8, GSK-3beta HIS (Homo sapiens, UniProt P49841).
T8 construct: His
T8 sequence (P49841 whole entry): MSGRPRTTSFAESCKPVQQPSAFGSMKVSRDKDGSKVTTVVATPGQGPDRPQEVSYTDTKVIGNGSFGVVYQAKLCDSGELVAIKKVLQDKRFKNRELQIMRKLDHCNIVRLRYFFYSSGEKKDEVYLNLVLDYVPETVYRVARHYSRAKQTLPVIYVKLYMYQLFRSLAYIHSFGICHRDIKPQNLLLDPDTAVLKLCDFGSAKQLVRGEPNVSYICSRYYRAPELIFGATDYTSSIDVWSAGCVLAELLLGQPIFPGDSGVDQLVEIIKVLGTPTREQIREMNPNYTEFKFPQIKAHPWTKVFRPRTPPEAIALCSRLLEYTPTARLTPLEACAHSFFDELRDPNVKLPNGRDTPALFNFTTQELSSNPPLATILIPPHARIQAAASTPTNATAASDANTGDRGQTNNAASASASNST
As to the kind of experiment: General kinase assay: GSK-3beta. The note with it: concentration 10 μM; read-out: Inhibitory effect on Target GSK-3beta HIS. As to the method:
as §1

The target in another assay is T9, EGFR GST-HIS (Homo sapiens, UniProt P00533).
T9 construct: GST; His
T9 sequence (P00533 25-1210): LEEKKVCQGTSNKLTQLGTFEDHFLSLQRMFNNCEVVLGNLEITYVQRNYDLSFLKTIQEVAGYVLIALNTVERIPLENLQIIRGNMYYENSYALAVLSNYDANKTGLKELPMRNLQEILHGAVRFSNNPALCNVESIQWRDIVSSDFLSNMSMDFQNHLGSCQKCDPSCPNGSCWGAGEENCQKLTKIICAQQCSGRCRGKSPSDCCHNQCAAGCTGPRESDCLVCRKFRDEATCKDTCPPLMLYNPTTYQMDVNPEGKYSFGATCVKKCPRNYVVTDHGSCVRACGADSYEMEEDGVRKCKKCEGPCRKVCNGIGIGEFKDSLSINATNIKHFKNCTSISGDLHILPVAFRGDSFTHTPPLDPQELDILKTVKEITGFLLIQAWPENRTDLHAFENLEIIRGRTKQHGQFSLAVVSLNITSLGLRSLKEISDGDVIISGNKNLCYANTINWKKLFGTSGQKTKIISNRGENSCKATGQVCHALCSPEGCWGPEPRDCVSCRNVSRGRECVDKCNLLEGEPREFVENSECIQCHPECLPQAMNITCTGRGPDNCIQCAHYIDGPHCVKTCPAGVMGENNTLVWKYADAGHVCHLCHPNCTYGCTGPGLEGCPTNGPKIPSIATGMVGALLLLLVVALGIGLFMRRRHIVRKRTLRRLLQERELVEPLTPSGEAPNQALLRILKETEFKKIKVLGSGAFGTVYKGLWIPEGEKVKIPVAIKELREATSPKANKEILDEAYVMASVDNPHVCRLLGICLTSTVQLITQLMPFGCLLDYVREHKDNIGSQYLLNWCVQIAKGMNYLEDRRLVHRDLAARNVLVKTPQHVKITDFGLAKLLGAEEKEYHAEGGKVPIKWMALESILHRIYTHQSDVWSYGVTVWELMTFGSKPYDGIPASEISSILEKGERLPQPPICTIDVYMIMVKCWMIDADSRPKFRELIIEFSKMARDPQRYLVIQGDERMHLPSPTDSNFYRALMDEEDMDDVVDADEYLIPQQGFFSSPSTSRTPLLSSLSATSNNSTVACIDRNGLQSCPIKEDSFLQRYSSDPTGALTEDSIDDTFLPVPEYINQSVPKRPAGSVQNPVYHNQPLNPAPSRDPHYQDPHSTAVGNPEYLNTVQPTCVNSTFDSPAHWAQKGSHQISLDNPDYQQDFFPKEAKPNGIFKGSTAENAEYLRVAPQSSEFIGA
Nature of the assay: General kinase assay: EGFR. The note with it: concentration 10 μM; read-out: Inhibitory effect on Target EGFR GST-HIS. As for the experimental part: as §1

The test system of another assay is p70S6K HIS. Nature of the assay: General kinase assay: p70S6K. The conditions noted are these: concentration 10 μM. As for the experimental part: as §1
The next assay deals with T10, c-Src HIS (Homo sapiens, UniProt P12931).
T10 construct: His
Nature of the assay: General kinase assay: c-Src. The conditions noted are these: concentration 10 μM; read-out: Inhibitory effect on Target c-Src HIS. As for the experimental part:
as §1

The next assay addresses T11, RICK-STREP 1 (Homo sapiens, UniProt O43353).
T11 construct: Strep
Nature of the assay: General kinase assay: RICK. The conditions noted are these: concentration 10 μM; read-out: Inhibitory effect on Target RICK-STREP 1. As for the experimental part: as §1

Another assay deals with T12, IKKbeta HIS (Homo sapiens, UniProt O14920).
T12 construct: His
T12 sequence (O14920 1-756): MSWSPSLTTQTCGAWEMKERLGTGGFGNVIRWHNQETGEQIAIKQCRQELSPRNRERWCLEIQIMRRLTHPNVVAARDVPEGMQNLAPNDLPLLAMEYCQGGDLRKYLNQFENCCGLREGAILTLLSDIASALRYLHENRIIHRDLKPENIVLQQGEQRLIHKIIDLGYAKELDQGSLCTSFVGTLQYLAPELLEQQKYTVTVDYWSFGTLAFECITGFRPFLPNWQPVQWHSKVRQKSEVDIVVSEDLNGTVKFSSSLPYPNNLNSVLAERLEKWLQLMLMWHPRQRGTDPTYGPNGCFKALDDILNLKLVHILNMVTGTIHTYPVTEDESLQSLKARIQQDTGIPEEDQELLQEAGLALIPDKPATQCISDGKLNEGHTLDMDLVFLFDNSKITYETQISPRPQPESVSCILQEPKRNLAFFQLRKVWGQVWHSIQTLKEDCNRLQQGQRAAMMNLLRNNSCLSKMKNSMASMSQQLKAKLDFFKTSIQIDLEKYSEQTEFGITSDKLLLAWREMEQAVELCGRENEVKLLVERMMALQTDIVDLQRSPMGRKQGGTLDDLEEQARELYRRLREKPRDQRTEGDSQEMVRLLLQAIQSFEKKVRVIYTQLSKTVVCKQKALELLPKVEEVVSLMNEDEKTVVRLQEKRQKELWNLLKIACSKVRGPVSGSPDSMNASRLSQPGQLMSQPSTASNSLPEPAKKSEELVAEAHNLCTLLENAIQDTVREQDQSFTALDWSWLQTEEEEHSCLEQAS
Nature of the assay: General kinase assay: IKKbeta. The note with it: concentration 10 μM; read-out: Inhibitory effect on Target IKKbeta HIS. As to the method:
as §1

Another assay addresses T13, InsR GST (Homo sapiens, UniProt P06213).
T13 construct: GST
Nature of the assay: General kinase assay: InsR. The note with it: concentration 10 μM; read-out: Inhibitory effect on Target InsR GST. As to the method: as §1

The target in the next assay is T14, AKT1/PKBa act. HIS (Homo sapiens, UniProt P31749).
T14 construct: His
Nature of the assay: General kinase assay (MBP, 33P-ATP, filter plate): AKT1/PKBa. The conditions noted are these: concentration 10 μM; read-out: Inhibitory effect on Target AKT1/PKBa act. HIS. As for the experimental part: as §1

A further assay has as its target CDK1/CycB act.GST-HIS (Homo sapiens, UniProt P06493). As to the kind of experiment: General kinase assay: CDK1/CycB. The conditions noted are these: concentration 10 μM; read-out: Inhibitory effect on Target CDK1/CycB act.GST-HIS. As to the method:
as §1

T11 sequence (O43353 whole entry): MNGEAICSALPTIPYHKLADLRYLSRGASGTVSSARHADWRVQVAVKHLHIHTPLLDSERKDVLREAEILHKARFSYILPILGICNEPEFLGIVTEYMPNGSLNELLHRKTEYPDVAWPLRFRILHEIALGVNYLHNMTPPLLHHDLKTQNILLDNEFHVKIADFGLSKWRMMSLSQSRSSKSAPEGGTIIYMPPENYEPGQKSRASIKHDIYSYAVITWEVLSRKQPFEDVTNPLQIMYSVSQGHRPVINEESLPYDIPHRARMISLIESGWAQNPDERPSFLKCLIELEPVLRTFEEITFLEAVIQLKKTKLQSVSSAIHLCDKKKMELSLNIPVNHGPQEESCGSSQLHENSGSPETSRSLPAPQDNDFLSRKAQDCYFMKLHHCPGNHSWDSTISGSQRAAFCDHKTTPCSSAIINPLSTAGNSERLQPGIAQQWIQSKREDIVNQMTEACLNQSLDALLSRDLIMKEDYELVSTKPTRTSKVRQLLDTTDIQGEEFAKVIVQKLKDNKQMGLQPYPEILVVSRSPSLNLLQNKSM

`NC(=O)c1c(NC(=O)Nc2ccccc2)sc2cc(O)ccc12` [Compound A12, 6-Hydroxy-2-(3-phenyl-ureido)-benzo[b]thiophene-3-carboxylic acid amide]: the inhibition at 10 µM at CK1-alpha GST, at RSK1 act. HIS, on ROCK2 human HIS, on SRPK1 GST, on CDK2/CycA and at Kit human GST was above 50% throughout. The inhibition at 10 µM at Jnk1a1 HIS, at PDGFRbeta GST, on GSK-3beta HIS, at EGFR GST-HIS, at c-Src HIS and at RICK-STREP 1 was above 50% throughout. Besides, the “Inhibitory effect on Target p70S6K HIS” value in the assay on p70S6K HIS is listed as “+ (+ = >50% inhibition at concentration 10 μM)”.

On to `CC1CC1C(=O)Nc1sc2c(Cl)c(O)ccc2c1C(N)=O` (stereo not shown) [Compound A37, 7-Chloro-6-hydroxy-2-[(2-methyl-cyclopropanecarbonyl)-amino]-benzo[b]thiophene-3-carboxylic acid amide], for which the inhibition at 10 µM on IKKbeta HIS, on InsR GST, on CK1-alpha GST, at RSK1 act. HIS, on AKT1/PKBa act. HIS and on SRPK1 GST was above 50% each time. Besides, the inhibition at 10 µM on CDK2/CycA, on Kit human GST, at Jnk1a1 HIS, on PDGFRbeta GST, at GSK-3beta HIS and on EGFR GST-HIS was above 50% each time. Also, the inhibition at 10 µM on RICK-STREP 1 is above 50%. Moreover, in the assay with p70S6K HIS, the “Inhibitory effect on Target p70S6K HIS” value is recorded as “+ (+ = >50% inhibition at concentration 10 μM)”.

In the case of `NC(=O)c1c(NC(=O)Nc2ccc(F)cc2)sc2c1CCOC2` [Compound B13, 2-[3-(4-Fluoro-phenyl)-ureido]-4,7-dihydro-5H-thieno[2,3-c]pyran-3-carboxylic acid amide], the inhibition at 10 µM on SRPK1 GST, on Kit human GST, at PDGFRbeta GST and at CDK1/CycB act.GST-HIS was above 50% in each case.
